How the values were obtained:
[1] = Liver microsomal stability, rat; assay type: in vitro ADME; conditions: Rat liver microsomes
Experimental: (§1) Compounds were incubated with mouse, rat, and human liver microsomal samples and NADPH at 37 °C for 5, 10, 20, 30, or 60 min. The reaction was terminated with a cold acetonitrile solution containing tolbutamide. Compound retention was determined by LC-MS/MS. The retention times, chromatographic acquisition, and chromatographic integration of compounds and positive control substances were analyzed using Analyst (AB Sciex, Framingham, MA, USA).

[2] = Liver microsomal stability, mouse; assay type: in vitro ADME; conditions: Mice liver microsomes
Experimental: as §1

hERG = molecular target: T1, hERG (Homo sapiens, UniProt Q12809); test: hERG assay in CHO cells stably expressing hERG; assay type: cell-based; conditions: maximum concentration of 30 μM
T1 construct: expressed in transfected cells; host or cells: CHO cells
T1 sequence (Q12809 whole entry): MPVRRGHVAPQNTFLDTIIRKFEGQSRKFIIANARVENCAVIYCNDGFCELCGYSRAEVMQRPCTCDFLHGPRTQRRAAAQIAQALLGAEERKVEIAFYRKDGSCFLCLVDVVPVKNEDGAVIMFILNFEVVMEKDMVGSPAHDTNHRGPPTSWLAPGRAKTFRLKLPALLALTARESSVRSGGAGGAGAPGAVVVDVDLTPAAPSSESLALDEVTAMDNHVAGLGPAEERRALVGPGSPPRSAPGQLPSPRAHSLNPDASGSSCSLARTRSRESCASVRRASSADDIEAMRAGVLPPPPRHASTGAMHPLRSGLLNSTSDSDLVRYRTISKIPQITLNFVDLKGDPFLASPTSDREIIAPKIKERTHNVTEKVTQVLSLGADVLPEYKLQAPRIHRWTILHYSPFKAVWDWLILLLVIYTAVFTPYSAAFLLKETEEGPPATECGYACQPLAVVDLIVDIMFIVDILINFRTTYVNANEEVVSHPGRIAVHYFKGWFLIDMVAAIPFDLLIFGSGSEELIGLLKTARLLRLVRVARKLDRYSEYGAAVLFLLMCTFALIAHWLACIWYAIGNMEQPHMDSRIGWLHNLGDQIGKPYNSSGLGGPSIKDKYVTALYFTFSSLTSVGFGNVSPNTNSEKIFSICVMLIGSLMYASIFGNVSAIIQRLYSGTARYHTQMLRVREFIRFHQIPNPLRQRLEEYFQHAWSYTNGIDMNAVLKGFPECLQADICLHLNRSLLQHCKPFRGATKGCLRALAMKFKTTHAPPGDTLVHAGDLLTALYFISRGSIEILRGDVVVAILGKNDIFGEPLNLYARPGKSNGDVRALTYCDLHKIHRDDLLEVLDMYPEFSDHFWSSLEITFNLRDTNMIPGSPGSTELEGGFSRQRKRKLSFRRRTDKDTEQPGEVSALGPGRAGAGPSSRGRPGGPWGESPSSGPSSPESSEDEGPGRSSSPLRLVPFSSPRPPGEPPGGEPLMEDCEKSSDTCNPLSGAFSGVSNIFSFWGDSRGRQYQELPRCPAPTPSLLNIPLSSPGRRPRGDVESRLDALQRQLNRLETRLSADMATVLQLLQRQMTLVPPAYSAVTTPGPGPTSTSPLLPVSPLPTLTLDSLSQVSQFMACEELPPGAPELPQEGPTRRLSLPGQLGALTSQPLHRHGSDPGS
Experimental: This test method is a reference to a previous study. CHO cells stably expressing hERG were cultured with medium containing 10% FBS, penicillin (100 U/mL), and streptomycin (100 μg/mL) in DMEM/F12 in an incubator at 37 °C, 5% CO2. Cultures were passaged in a 1:5 ratio every 48 h. The medium consisted of 90% F12, 10% FBS, G418 (100 μg/mL), and hygromycin B (100 μg/mL). On the day of the assay, the current should reach a steady state for at least 1 min prior to administration of the compounds, and the test current was measured again after 5 min of stimulation with different concentrations of the drug.

**Q.** For CC1(C)CCN1C(=O)O[C@@H]1CC[C@H](c2cc(NC(=O)Cc3ccc(N4CCCC4=O)cc3)n[nH]2)C1 [III-13], which CLint scaled [1] is on record?
**A.** Its CLint scaled is 5.33 L/h/kg.

**Q.** What about the “Remaining (T = 60 min)” value ([1]; 60 min) of the same compound?
**A.** The value was 22.8%.

**Q.** What about the half-life ([1]; NADPH, 37 °C) of the same compound?
**A.** The half-life was 28.1 min.

**Q.** What about the “Remaining (T = 60 min)” value ([2]; 60 min) of the same compound?
**A.** The value was 1.29%.

**Q.** What about the CLint scaled ([2]; mouse) of the same compound?
**A.** Its CLint scaled is 50.4 L/h/kg.

**Q.** And the half-life ([2]; mouse, NADPH, 37 °C)?
**A.** The half-life was 6.53 min.

**Q.** And the “cardiotoxicity in hERG assay” value (hERG)?
**A.** Its value is “no cardiotoxicity”.

Source: article PMC10856454, “Discovery of Novel Antitumor Small-Molecule Agent with Dual Action of CDK2/p-RB and MDM2/p53” (Molecules, 2024)
